{"source": "paper PMC9013686", "about": "“Inter-individual variation in chlorpyrifos toxicokinetics characterized by physiologically based kinetic (PBK) and Monte Carlo simulation comparing human liver microsome and Supersome™ cytochromes P450 (CYP)-specific kinetic data as model input” (Archives of Toxicology, 2022)", "assay_type_in_all_cases": "in vitro ADME", "key": {"CYP1A2 in pooled HLMs": {"target": "T1, CYP1A2 in pooled HLMs (Homo sapiens, UniProt P05177)", "T1 construct": "the native CYPs present in HLM; tissue Corning (Amsterdam, The Netherlands); host or cells: pooled human liver microsomes, 150 donors, mixed gender", "T1 sequence (P05177 1-516)": "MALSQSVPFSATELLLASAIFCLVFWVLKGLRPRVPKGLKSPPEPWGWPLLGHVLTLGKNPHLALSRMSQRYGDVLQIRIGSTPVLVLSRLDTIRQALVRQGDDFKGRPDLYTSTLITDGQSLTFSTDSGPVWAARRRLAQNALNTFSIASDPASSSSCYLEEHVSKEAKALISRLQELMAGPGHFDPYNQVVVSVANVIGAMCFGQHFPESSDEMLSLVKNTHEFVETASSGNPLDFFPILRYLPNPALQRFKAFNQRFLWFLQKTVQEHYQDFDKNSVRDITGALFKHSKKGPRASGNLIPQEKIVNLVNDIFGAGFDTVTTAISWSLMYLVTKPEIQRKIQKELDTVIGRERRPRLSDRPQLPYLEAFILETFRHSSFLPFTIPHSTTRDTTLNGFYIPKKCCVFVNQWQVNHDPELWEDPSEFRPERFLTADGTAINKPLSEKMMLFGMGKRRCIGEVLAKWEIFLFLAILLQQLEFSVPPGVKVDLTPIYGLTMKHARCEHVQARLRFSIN", "test": "Pooled HLM incubation with CYP1A2 probe substrate (ISEF determination)", "conditions": "acetaminophen formation", "protocol": "(§1) To normalize for differences in intrinsic CYP activity between Supersome™ and pooled HLMs and enable scaling of the activities to the in vivo situation, CYP-specific ISEF values need to be established. […] The incubation method was similar as used for the CPF kinetic incubation assay described above, except that certain incubation conditions were replaced by the conditions listed in Table 1. The samples obtained were analyzed by UPLC-PDA for acetaminophen, 4-hydroxymephenytoin, and 6β-hydroxytestosterone formation catalyzed by 1A2, 2C19 and 3A4, or LC–MS/MS for (±)-hydroxybupropion formation catalyzed by 2B6.\n(§2) As mentioned before, the in vitro apparent kinetic parameters (Vmax and Km) for pathway 1 and pathway 2 in the HLM-based approach, and pathway 3 in both approaches were all obtained directly from reported studies using pooled HLMs (Buratti et al. [2003]; Sams et al. [2004]; Zhao et al. [2019]). Therefore, no extra calculations were required to define these parameters. […] It should be noted that the kinetic parameters for pathway 4 used in the two approaches were calculated as mean of the kinetic parameters (Vmax and Km) obtained using 25 individual HP samples (with correction for total protein concentration of each plasma sample)."}, "CYP3A4 in pooled HLMs": {"target": "T2, CYP3A4 in pooled HLMs (Homo sapiens, UniProt P08684)", "T2 construct": "the native CYPs present in HLM; tissue Corning (Amsterdam, The Netherlands); host or cells: pooled human liver microsomes, 150 donors, mixed gender", "T2 sequence (P08684 2-503)": "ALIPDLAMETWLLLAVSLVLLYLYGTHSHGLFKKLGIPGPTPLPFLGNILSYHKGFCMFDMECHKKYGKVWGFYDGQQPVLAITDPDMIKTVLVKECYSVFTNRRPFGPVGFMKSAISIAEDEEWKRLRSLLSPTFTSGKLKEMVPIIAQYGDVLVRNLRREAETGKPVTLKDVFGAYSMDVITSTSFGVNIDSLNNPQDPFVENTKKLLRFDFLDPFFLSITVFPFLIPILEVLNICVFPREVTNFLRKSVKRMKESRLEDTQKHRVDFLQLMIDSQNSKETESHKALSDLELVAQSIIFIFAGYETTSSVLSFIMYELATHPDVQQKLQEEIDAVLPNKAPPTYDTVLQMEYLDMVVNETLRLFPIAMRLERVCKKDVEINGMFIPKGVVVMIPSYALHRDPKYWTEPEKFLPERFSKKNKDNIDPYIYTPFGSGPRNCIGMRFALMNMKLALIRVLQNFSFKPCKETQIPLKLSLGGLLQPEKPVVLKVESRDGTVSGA", "test": "Pooled HLM incubation with CYP3A4 probe substrate (ISEF determination)", "conditions": "6β-hydroxytestosterone formation", "protocol": "as §1, §2"}, "CYP3A4": {"target": "CYP3A4 (Homo sapiens, UniProt P08684)", "sequence (P08684 2-503 limits assumed)": "as the sequence (P08684 2-503) above", "test": "Supersome CYP3A4 kinetic incubations", "set-up": "purchased Corning (Amsterdam, The Netherlands); host or cells: baculovirus-transfected insect cells", "protocol": "The final incubations were carried out in 50 mM Tris–HCl (pH 7.4) containing 5 mM MgCl2, 1 mM EDTA (as an A-esterase PON1 inhibitor) (Bizoń and Milnerowicz [2018]), 50 µM iso-OMPA (as a B-esterases inhibitor) (Lane et al. [2006]), Supersome™ isoform (at final concentration of 0.005 nmol CYP/ml for 1A2, 0.001 nmol CYP/ml for 2B6, 0.01 nmol CYP/ml for 2C19, and 0.01 nmol CYP/ml for 3A4) and CPF at different final concentrations (0.05, 0.1, 0.25, 0.5, 1, 5 and 10 µM for 1A2, 0.05, 0.1, 0.25, 0.5, 1, 5 10 and 25 µM for 2B6, 1, 2.5, 5, 10, 25 and 50 µM for 2C19, and 0.5, 1, 2.5, 5, 10, 25 and 50 µM for 3A4), which were added from 100 times concentrated stock solutions in ACN. After 1 min preincubation in a 37 °C water bath, 5 µl NADPH (final concentration 1 mM) was added to the incubation system. Control incubations were performed by replacing NADPH with the same amount of Tris–HCl (pH 7.4). The total volume of the incubation mixtures was 200 µl. The incubations lasted for 2 min at 37 °C and were terminated by addition of 50 µl ice cold ACN and subsquently put on ice. After that, samples were centrifuged at 16,000 g (4 ℃) for 5 min and supernatants of samples were separated into two equal portions for Ultra-Performance Liquid Chromatography-Photodiode Array (UPLC-PDA) and Liquid Chromatography Mass Spectrometry (LC–MS/MS) analysis, respectively.\nas §1\nAs mentioned before, the in vitro apparent kinetic parameters (Vmax and Km) for pathway 1 and pathway 2 in the HLM-based approach, and pathway 3 in both approaches were all obtained directly from reported studies using pooled HLMs (Buratti et al. [2003]; Sams et al. [2004]; Zhao et al. [2019]). Therefore, no extra calculations were required to define these parameters. The kinetic parameters for the ISEF calculation, pathway 1 and 2 in the Supersome™-based approach, and pathway 4 in both approaches (25 individuals) were all obtained by fitting the experimental data to the Michaelis–Menten model using GraphPad (GraphPad Prism 5.0 software, San Diego, CA, USA). It should be noted that the kinetic parameters for pathway 4 used in the two approaches were calculated as mean of the kinetic parameters (Vmax and Km) obtained using 25 individual HP samples (with correction for total protein concentration of each plasma sample).\nThe in vivo Kmi values were assumed to be equal to the apparent Kmi(app) values (µM) obtained in the in vitro incubations, while the in vivo Vmaxi for each CYP isoform was derived from their corresponding apparent CYP isoform Vmaxi(app) (pmol/min/pmolCYP) using Eq. 3:3 Vmaxi=Vmaxiapp×CYPiabundance×ISEF×60×MPL×1000×VL/1,000,000,"}}, "data": [{"smiles": "CCOc1ccc(NC(C)=O)cc1", "note": "[Phenacetin, phenacetin]", "values": [{"measurement": "Vmax (pooled HLMs)", "setting": "CYP1A2 in pooled HLMs", "value": "0.15 nmol/min/mg microsomal protein"}]}, {"smiles": "C[C@]12CC[C@H]3[C@@H](CCC4=CC(=O)CC[C@@]43C)[C@@H]1CC[C@@H]2O", "note": "[Testosterone, testosterone, reference compound]", "values": [{"measurement": "Vmax (pooled HLMs)", "setting": "CYP3A4 in pooled HLMs", "value": "17.29 nmol/min/mg microsomal protein"}, {"measurement": "Vmax (Supersome)", "setting": "CYP3A4; 6β-hydroxytestosterone formation, Supersome CYP3A4", "value": 1179, "unit": "pmol/min/pmol CYP"}, {"measurement": "ISEF", "setting": "CYP3A4; CYP3A4, calculated on the basis of Eq. 4 from probe substrate Vmax in pooled HLMs and Supersome", "value": 0.11}]}]}
